# Where a name gives a salt, the structure may show the parent alone. Marks after values point to notes of the source that are not given here.
# Assays:
# [1] = system: mice cough induced by ammonia water; assay: Antitussive test, cough induced by ammonia water in mice; format: in vivo, mouse
# Procedure: Experimental example 6 The effect of protein BD-4 (Example 4 protein) on the antitussive effect of the cough induced by ammonia water in mice. Animals: male ICR mice; Drugs and reagents: dextromethorphan hydrobromide, ammonia, 0.2% CMC-Na, protein BD-4; Apparatus: Compressed nebulizer (403T type), balance (XS105DU type). Experiment Grouping: • Solvent control group; • Dextromethorphan 15 mg/kg group; • Protein BD-4, 20 mg/kg group, 50 mg/kg group. Method: Model Preparation and Administration:
# Dextromethorphan and different doses of protein BD-4 (administration volume 10 ml/kg) were given orally in groups, and the solvent control group was given the same volume of distilled water. One hour later, it was put into a sealed box and atomized 10% ammonia water for 10 seconds, and then observed and recorded the incubation period of cough in mice and the number of coughs in 2 minutes.
# Record the time point of oral administration, the time point of atomization experiment, the incubation period of mice cough and the number of coughs within 2 minutes, respectively. The incubation period of cough refers to the number of seconds from the start of the atomization of ammonia to the occurrence of cough. The performance of coughing in mice is based on contraction of their abdominal muscles (breast contraction) and opening their mouths at the same time. Calculate the mean and standard error of each group of data, use TTEST to compare the model group with other groups, and P<0.05 is considered as a significant difference.
# [2] = system: PTZ-induced epilepsy in mice; assay: Pentylenetetrazole (PTZ) induced epilepsy in mice; format: in vivo, mouse; details: Retigabine 60 mg/kg
# Procedure: Experiment Grouping: • Model group; • Retigabine 60 mg/kg group; • Protein BD-4, 50 mg/kg group, 200 mg/kg group; Method: Model Preparation and Administration:
# Administer once in the afternoon the day before modeling, On the day of modeling, intraperitoneal injection of PTZ-65 mg/kg (modeling agent) 1 hour after gavage of the test drug, the positive drug can be administered once half an hour before modeling. Continue to observe for 15 minutes after injection of PTZ.
# Observation index: 1) Seizure condition: Onset time of grade III to grade VI; 2) Death situation
# Onset level: Refer to Racine grading standard: Level 0: No response; Grade I: manifested as twitching of facial muscles or the corners of the mouth; Level II: Can nod; Grade III: twitching of one limb; Grade IV: Rigidity or body twitching; Grade V: Generalized epilepsy (Generalized tonic seizures).
# Count the number of seizures and deaths in each group of mice in the experiment; Level III and IV incubation period. The incubation period of mice that have not attacked to grade IV is recorded as the maximum of 900 seconds. Chi-square test was used for statistics of the number of cases. Calculate the mean and standard error of the incubation period. Use TTEST to compare the model group with other groups, and P<0.05 is considered as a significant difference.
# [3] = system: PLO-induced epilepsy in mice; assay: Pilocarpine (PLO) induced convulsive epilepsy in mice; format: in vivo, mouse; details: Diazepam 2 mg/kg
# Procedure: Experimental example 3 The pharmacodynamic test of protein BD-4 (Example 4 protein) on convulsive epilepsy in mice caused by the convulsion agent Pilocarpine (PLO)
# Model group: • Diazepam (Diazepam) 2 mg/kg group; • Protein BD-4, 50 mg/kg group, 200 mg/kg group. Method: Model Preparation and Administration:
# The drug was administered once in the afternoon the day before modeling, PLO-225 mg/kg (modeling agent) was injected intraperitoneally 1 hour after the test drug was given to the stomach on the day of modeling. And positive drug can be administered once 20 minutes before modeling. Observe for 30 minutes after PLO injection.
# Observation indicators: 1) Seizure situation: the time of seizures from grade II to grade IV; 2) the time to death.
# Attack level: Refer to Racine grading standard: Level 0: No response; Grade I: manifested as twitching of facial muscles or the corners of the mouth; Level II: can nod; Level III: Twitching of one limb; Grade IV: rigidity or body twitching; Grade V: generalized epilepsy (generalized tonic seizures).
# Count the number of grade IV seizures and deaths in each group of mice in the experiment; Level II, III and IV incubation period. […] Chi-square test was used for statistics of the number of cases. The mean value and standard error of the incubation period were calculated, and TTEST was used to compare the model group with other groups. P<0.05 was considered as a significant difference.
# [4] = system: lipopolysaccharide (LPS) induced fever in rats; assay: Lipopolysaccharide (LPS) induced fever in SD rats; format: in vivo, rat
# Procedure: Experimental example 2 The pharmacodynamic test of protein BD-4 (Example 4 protein) on lipopolysaccharide (LPS) induced fever in SD rats.
# Experiment Grouping: • Model group: lipopolysaccharide fever model; • Positive control group: Aspirin 300 mg/kg group, • Protein BD-4, 10 mg/kg group, 50 mg/kg group. Method: the method of intraperitoneal injection of Lipopolysaccharide to create fever model in rats.
# (§1) Preparation of experimental animals: After the experimental animals adapt to the experimental environment (temperature 22° C.±2° C., relative humidity 50%±2%) for 1 day. Pre-adaptation to measure rectal temperature at 8:00 and 15:00, Rats were fasted and water was taken freely 12 h before experiment. before the experiment, let the animal to empty its feces before measuring the rectal temperature. Apply petroleum jelly to the electronic thermometer probe before each temperature measurement. Insert the rat rectum 2 cm (can be marked at 2 cm to ensure that the depth of each insertion is consistent), and record the body temperature after the reading is stable.
# Intraperitoneal injection of lipopolysaccharide to replicate rat fever model: The body temperature of the rats was measured before modeling. Qualified rats with a body temperature of 36.2-37.3° C. were selected and randomly divided into groups with 8 rats in each group. After oral administration of aspirin and different doses of protein BD-4, lipopolysaccharide (20 μg/kg, 2 ml/kg) was injected intraperitoneally immediately, and the normal control group was injected intraperitoneally with an equal volume of normal saline. the rats' body temperature was monitored after 2 hours for a total of 8 hours.
# (§2) According to the body temperature measured at each time point on the day of the experiment, calculate the mean, standard deviation and standard error of the body temperature of each group of rats. The data of each group was compared with TTEST, and P<0.05 was considered as a significant difference.
# [5] = system: yeast-induced fever model in rats; assay: Yeast-induced fever model in SD rats; format: in vivo, rat
# Procedure: Experimental example 1 The pharmacodynamic test of protein BD-4 (the protein in Example 4) on the fever model of SD rats induced by yeast
# • Normal control group; • Model group: yeast fever model; • Positive control group: Aspirin 300 mg/kg group; • Protein BD-4, 10 mg/kg group, 50 mg/kg group. Method:
# as §1, with “experiment.” for “experiment. before the experiment,”
# Subcutaneous injection of dry yeast to replicate rat fever model: The body temperature of the rats was measured before modeling. Qualified rats with a body temperature of 36.2-37.3° C. were selected and randomly divided into groups with 8 rats in each group. After oral administration of aspirin and different doses of protein BD-4, 20% yeast suspension (10 ml/kg) was injected subcutaneously immediately, and the normal control group was injected intraperitoneally with an equal volume of normal saline. the rats' body temperature was monitored after 2 hours for a total of 8 hours.
# as §2
# [6] = system: acetic acid writhing of ICR mice; assay: Acetic acid writhing test in ICR mice; format: in vivo, mouse
# Procedure: Experimental example 7 The pharmacodynamic test of protein BD-4 (Example 4 protein) on acetic acid writhing in ICR mice. Animals: male ICR mice; Drugs and reagents: aspirin, physiological saline, glacial acetic acid, protein BD-4. Experiment Grouping:
# One day after the experimental animals adapt to the environment, Aspirin 300 mg/kg, protein BD-4 50 mg/kg, 200 mg/kg were given orally one hour in advance, and the administration volume was 10 ml/kg; Then, 0.6% acetic acid solution was injected into the abdominal cavity, and the latency period (seconds) and frequency of writhing in the animal was observed within 15 minutes.
# Calculate the mean and standard error of the data in each group. Compared with the model group by TTEST, P<0.05 was considered as statistically different.
# 0.6% acetic acid solution was injected into the abdominal cavity of mice, which caused deep and large area and long-term painful stimulation, causing the mice to writhe (the abdomen was contracted into an “S” shape, the trunk and hind legs were stretched, the buttocks were raised and the hips Row). The incubation time and the number of times the mice began to writhe were used as the pain response index to determine whether the test sample had analgesic effect. […] Compared with the model group, P<0.05, which is statistically significant.
# [7] = dextromethorphan 15 mg/kg, P<0.05
# [8] = aspirin 300 mg/kg oral, 0.6% acetic acid i.p., within 15 minutes
structure (smiles),measurement,setting,value
"COc1ccc2c(c1)[C@]13CCCC[C@@H]1[C@H](C2)N(C)CC3 [Dextromethorphan, dextromethorphan hydrobromide, reference compound]",Incubation period,"[1]; Dextromethorphan 15 mg/kg oral, cough latency, X ± SEM",39.2 ± 2.8 s
same,Number of coughs,"[1]; Dextromethorphan 15 mg/kg oral, within 2 minutes, X ± SEM",40.2 ± 3.5
same,Cough incubation period vs solvent control group,[1]; [7],significant improvement
same,Number of coughs vs solvent control group,[1]; [7],significant improvement
"CCOC(=O)Nc1ccc(NCc2ccc(F)cc2)cc1N [Retigabine, reference compound]",Grade IV seizure rate,"[2]; 10 mice, PTZ 65 mg/kg i.p.",10%**
same,mortality rate,"[2]; 10 mice, PTZ 65 mg/kg i.p.",0
same,Level III onset latency,[2]; mean ± SEM,106 ± 12 s
same,Grade IV onset latency,"[2]; mean ± SEM, no grade IV attack recorded as 900 s",819 ± 81 s
same,Number of deaths,"[2]; of 10 mice, PTZ 65 mg/kg i.p.",0
same,Number of Grade IV cases,"[2]; of 10 mice, PTZ 65 mg/kg i.p., 15 min observation",1**
"CN1C(=O)CN=C(c2ccccc2)c2cc(Cl)ccc21 [Diazepam, reference compound]",Grade IV seizure rate,"[3]; 10 mice, PLO 225 mg/kg i.p.",0**
same,mortality rate,"[3]; 10 mice, PLO 225 mg/kg i.p.",0
same,Level II onset incubation period,[3]; mean ± SEM,118 ± 9 s
same,Level III onset incubation period,[3]; mean ± SEM,172 ± 13 s
same,Level IV onset incubation period,"[3]; mean ± SEM, no grade IV attack recorded as 1800 s",1800 ± 0 s
same,Number of deaths,"[3]; of 10 mice, PLO 225 mg/kg i.p.",0
same,Number of Grade IV cases,"[3]; of 10 mice, PLO 225 mg/kg i.p., 30 min observation",0**
"CC(=O)Oc1ccccc1C(=O)O [aspirin, reference compound]",Body temperature 2 hours after modeling,"[4]; aspirin 300 mg/kg oral, 2 h after LPS 20 μg/kg i.p.",36.9 ± 0.2 °C
same,Body temperature 4 hours after modeling,"[4]; aspirin 300 mg/kg oral, 4 h after LPS 20 μg/kg i.p.",37.0 ± 0.1 °C
same,Body temperature 6 hours after modeling,"[4]; aspirin 300 mg/kg oral, 6 h after LPS 20 μg/kg i.p.",36.9 ± 0.1 °C
same,Body temperature 8 hours after modeling,"[4]; aspirin 300 mg/kg oral, 8 h after LPS 20 μg/kg i.p.",36.9 ± 0.1 °C
same,Effect on increase in body temperature of model rats,"[4]; aspirin 300 mg/kg, 2, 4, 6 and 8 hours after modeling, vs model group P<0.05",effectively inhibit the increase in body temperature
same,Body temperature 2 hours after modeling,"[5]; aspirin 300 mg/kg oral, 2 h after 20% yeast s.c.",36.5 ± 0.1 °C
same,Body temperature 4 hours after modeling,"[5]; aspirin 300 mg/kg oral, 4 h after 20% yeast s.c.",36.9 ± 0.1 °C
same,Body temperature 6 hours after modeling,"[5]; aspirin 300 mg/kg oral, 6 h after 20% yeast s.c.",37.0 ± 0.1 °C
same,Body temperature 8 hours after modeling,"[5]; aspirin 300 mg/kg oral, 8 h after 20% yeast s.c.",37.2 ± 0.1 °C
same,Effect on increase in body temperature of model rats,"[5]; aspirin 300 mg/kg, 4, 6 and 8 hours after modeling, vs model group P<0.05",effectively inhibit the increase in body temperature
same,Frequency of writhing vs model group,"[6]; Aspirin 300 mg/kg, P<0.05",reduce the frequency of writhing
same,Incubation period of writhing vs model group,"[6]; Aspirin 300 mg/kg, P<0.05",significantly delay the incubation period of writhing
same,Number of twists,[6]; [8],16.7 ± 2.6 times
same,Writhing latency,[6]; [8],301.0 ± 30.4 s
